Here are results for 10 molecules from PubChem BioAssay (NCI).

Several values for one entry are separate records, joined by “and”; a condition that tells them apart may be missing. Identical values can stand only once.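 Tested at 5 concentrations; 48 h exposure; 96-well plates; endpoints linearly interpolated, else capped at highest concentration. Abbreviation: GI50, concentration required for 50% inhibition of growth. TGI: concentration producing complete growth inhibition.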

Assay in all cases: growth of human tumour cells (NCI), 48 h
Assay [1] concerns SN12C renal.
The test system of assay [2] is A549 NSCLC.
Assay [3] concerns SW-620 colon.
In assay [4] the test system is ACHN renal.
Assay [5] deals with MOLT-4 leukemia.
Assay [6] deals with UACC-257 melanoma.
Assay [7] relates to COLO 205 colon.
The test system of assay [8] is U251 CNS.
Assay [9] deals with NCI-H23 lung.
Assay [10] relates to M14 melanoma.

For `Cn1c(=O)nc2n(-c3cc(C(F)(F)F)cc(C(F)(F)F)c3)c3ccccc3nc-2c1=O`, the TGI in assay [1], in assay [2], in [3], in assay [4], in [5] and in [6] was above 100 µM throughout. Besides, the TGI in [7], in assay [8], in [9] and in assay [10] was above 100 µM each time.
On to `CC(C)[C@H](O)C(=O)N[C@@H](C)C(=O)N[C@@H]1C(=O)N(C)CCc2ccccc21`, for which the GI50 in [1], in assay [2], in assay [3], in assay [4], in [5] and in assay [6] was above 100 µM throughout. Moreover, the GI50 in assay [7], in assay [8], in assay [9] and in assay [10] was above 100 µM in each case. In addition, the TGI in assay [1], in [2], in [3], in assay [4], in assay [5] and in assay [6] was above 100 µM each time. Moreover, the TGI in assay [7], in assay [8], in assay [9] and in assay [10] was above 100 µM throughout.
For the molecule `Nc1ccccc1O.O.O=C(O)C1[O][Sb][O]C1C(=O)O` (centres undefined), the GI50 in [1] was 7.7 µM; in assay [2], 54.7 µM; in [3] it was 4.48 µM; in [4], 16.1 µM; in assay [5], 10.8 µM; in assay [6], 14.1 µM. The GI50 was 18.7 µM in assay [7], 13.8 µM in assay [8], 17.6 µM in assay [9] and 11.5 µM in assay [10]. The TGI in [1] was 21.3 µM; in assay [2] it was above 100 µM; in assay [3], 31.2 µM; in assay [4], 29.8 µM; in assay [5], above 100 µM; in [6] it was 28 µM. Also, the TGI in assay [7] was determined as 35.3 µM; in assay [8], 27.8 µM; in [9], 44.2 µM; in assay [10], 25.9 µM.
As for `CN(C)C(=S)SSC(=S)N(C)C`, the GI50 in [1] was 14.7 µM; in assay [2] it was 17.2 µM and 3.51 µM and 19.7 µM; in assay [4], 15.7 µM and 55.6 µM and 19.7 µM; in [6] it was 15 µM and 4.06 µM and 28.4 µM; in assay [8], 12.6 µM; in [9], 21.5 µM and 4.49 µM and 21 µM. Moreover, in assay [10], the GI50 was 14.4 µM. Also, the TGI in assay [1] is 28.7 µM and > 46.4 µM and 54.5 µM; in [2], 45.9 µM and > 100 µM and 48.1 µM; in [3], 22.8 µM and 22.1 µM and > 56.6 µM; in assay [4] it was 30.2 µM and > 100 µM and 37.1 µM; in [5] it was 75.1 µM and 37.5 µM and 23.8 µM; in assay [6], 30.5 µM and 39.9 µM and > 55.7 µM. For the same molecule, the TGI in assay [7] was 29.3 µM; in assay [8], 26 µM and > 65.3 µM and 38.5 µM; in [9], 64.9 µM and 14.3 µM and 43.7 µM; in assay [10] it was 30 µM and > 61.7 µM and > 51.3 µM.
On to `CCC1CN2CCc3cc(OC)c(OC)cc3C2CC1CC1c2cc(OC)c(OC)cc2CCN1C(=O)C1CCCN1` (centres undefined), for which the TGI in [1] was above 100 µM; in assay [2], 78.1 µM; in assay [3], above 100 µM; in assay [4], above 100 µM; in assay [5], 85.1 µM; in assay [6], 41 µM. Moreover, the TGI is 25.7 µM in [7], 69.4 µM in assay [8], above 100 µM in assay [9] and 27.6 µM in assay [10].
As to `c1ccc2c(c1)[nH]c1c2cc[n+]2cc3c(cc12)CCCC3`, the GI50 is 3.05 µM in assay [1]; 4.88 µM in assay [2]; 2.35 µM in assay [3]; 3.74 µM in assay [5]; 2.09 µM in assay [6]; 1.9 µM in [7]. For the same molecule, the GI50 in assay [10] is 3.01 µM. The TGI in assay [1] is 12.8 µM and 12.1 µM; in assay [2], 24.6 µM and 30.8 µM; in [3] it was 11.6 µM and 16.2 µM; in assay [4], 16.1 µM and 14.1 µM; in [5], 13.7 µM and 3.73 µM; in assay [6] it was 6.83 µM and 25.6 µM. Moreover, the TGI in assay [7] is 5.45 µM and 3.56 µM; in [8], 9.77 µM and 12.1 µM; in assay [9] it was 6.95 µM; in [10] it was 14 µM and 7.29 µM.
As to `COC(=O)/C([Se]c1c(C)cc(C)cc1C)=C(/[Se]c1c(C)cc(C)cc1C)C(=O)OC`, the TGI in assay [1], in assay [2], in [3], in assay [4], in [5] and in assay [6] was above 100 µM each time. Besides, the TGI in assay [7], in assay [8], in [9] and in assay [10] was above 100 µM throughout.
`CC(C(=O)c1ccc(Cl)cc1)/C(=N/NC(=O)NN)C(=O)Nc1cccc(C(F)(F)F)c1` (centres undefined): the TGI in assay [1], in [2], in assay [3], in [4], in [5] and in [6] was above 100 µM each time. Further, the TGI in [7], in [8], in assay [9] and in assay [10] was above 100 µM each time.
In the case of `Cc1ccccc1C1=[N+]([O-])c2ccc(Cl)cc2C1=O`, the TGI came out at 28.5 µM in [1]; 34.2 µM in assay [2]; 40.9 µM in assay [3]; 25.5 µM in assay [4]; 24.3 µM in assay [5]; 26.4 µM in assay [6]. Besides, the TGI in assay [7] was found to be 20.2 µM; in [8], 32 µM; in assay [9], 32.2 µM; in assay [10] it was 29.9 µM.
For the molecule `CC(C)=C1CCC(CN(C)C)C1=O` (centres undefined), the TGI in assay [1] is 33.6 µM; in assay [2] it was above 100 µM; in assay [3], 20.2 µM; in [4], 31.5 µM; in assay [5] it was 32.9 µM; in [6] it was 31.6 µM. Further, the TGI is 63.4 µM in assay [7], above 100 µM in [8], above 100 µM in assay [9] and 28.4 µM in assay [10].
